Target: T1, human Npt2a (Homo sapiens, UniProt Q06495)
T1 construct: expressed in transfected cells
T1 sequence (Q06495 1-639): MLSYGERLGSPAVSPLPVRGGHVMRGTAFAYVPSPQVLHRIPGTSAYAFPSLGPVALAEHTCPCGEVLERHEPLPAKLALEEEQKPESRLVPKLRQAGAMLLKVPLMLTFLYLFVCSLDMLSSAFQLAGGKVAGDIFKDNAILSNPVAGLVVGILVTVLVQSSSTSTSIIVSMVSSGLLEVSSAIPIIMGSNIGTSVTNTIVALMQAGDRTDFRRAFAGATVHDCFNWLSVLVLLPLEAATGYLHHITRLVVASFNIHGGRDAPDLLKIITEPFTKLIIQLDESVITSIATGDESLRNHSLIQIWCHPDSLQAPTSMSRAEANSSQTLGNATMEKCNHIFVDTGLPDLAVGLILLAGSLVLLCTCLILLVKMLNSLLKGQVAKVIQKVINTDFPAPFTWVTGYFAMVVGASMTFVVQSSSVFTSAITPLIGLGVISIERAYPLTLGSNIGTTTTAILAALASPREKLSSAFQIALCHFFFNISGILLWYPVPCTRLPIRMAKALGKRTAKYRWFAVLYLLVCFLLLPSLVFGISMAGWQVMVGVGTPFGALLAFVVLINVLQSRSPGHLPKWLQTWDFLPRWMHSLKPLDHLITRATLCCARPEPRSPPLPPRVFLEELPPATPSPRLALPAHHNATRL
Assay: Npt2a activity cell based assay, membrane potential dye, CHO T-REx hNpt2a cells
Conditions: doxycycline-induced, depolarization by sodium phosphate influx, average or median values if tested more than once
How it was run: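 Doxycycline-induced (0.5 μg/mL, 24 h) CHO T-REx cells were loaded with membrane potential dye in sodium-free NHE buffer (pH 7.4) and exposed to compound (50 μM–1 nM, 5 min, room temperature).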

Cc1nn(-c2cc(Nc3nn(CC4CC4)c(-c4ccc(F)cc4)c3Cl)ncn2)c(C)c1C(C)(C)O [Example 160, 2-[1-(6-{[4-chloro-1-(cyclopropylmethyl)-5-(4-fluorophenyl)-1H-pyrazol-3-yl]amino}pyrimidin-4-yl)-3,5-dimethyl-1H-pyrazol-4-yl]propan-2-ol] was tested. Which IC50 did it give?
Its IC50 is 1110 nM.

For CCc1c(-c2ccc(F)cc2)nn(CC(F)F)c1Nc1cc(-n2nc(C)cc2C)ncn1 [Example 162, N-[1-(2,2-difluoroethyl)-4-ethyl-3-(4-fluorophenyl)-1H-pyrazol-5-yl]-6-(3,5-dimethyl-1H-pyrazol-1-yl)pyrimidin-4-amine], which IC50 is on record?
The IC50 was 97 nM.

CCc1c(-c2ccc(F)cc2)nn(CC(F)F)c1Nc1cc(-n2nc(C)c(Cl)c2C)ncn1 [Example 163, 6-(4-chloro-3,5-dimethyl-1H-pyrazol-1-yl)-N-[1-(2,2-difluoroethyl)-4-ethyl-3-(4-fluorophenyl)-1H-pyrazol-5-yl]pyrimidin-4-amine] was tested. Which IC50 did it give?
Its IC50 is 71 nM.

How did the IC50 turn out when CCc1c(-c2ccc(C#N)cc2)nn(CC2CC2)c1Nc1cc(-n2nc(C)c(Cl)c2C(F)F)ncn1 [Example 164, 4-[5-({6-[4-chloro-5-(difluoromethyl)-3-methyl-1H-pyrazol-1-yl]pyrimidin-4-yl}amino)-1-(cyclopropylmethyl)-4-ethyl-1H-pyrazol-3-yl]benzonitrile] was run?
The IC50 was 11 nM.

With Cc1nn(-c2cc(Nc3c(C)c(-c4ccc(C#N)cc4)nn3CC3CC3)ncn2)c(C)c1C(C)(C)O [Example 165, 4-[1-(cyclopropylmethyl)-5-({6-[4-(2-hydroxypropan-2-yl)-3,5-dimethyl-1H-pyrazol-1-yl]pyrimidin-4-yl}amino)-4-methyl-1H-pyrazol-3-yl]benzonitrile] as the molecule, how does the IC50 read?
The IC50 was 3 nM.

Which IC50 does the source give for CCc1c(Nc2cc(-n3nc(C)c(C(=O)OC(C)(C)C)c3C(F)F)ncn2)nn(C)c1-c1ccc(F)cc1 [Example 166, tert-butyl 5-(difluoromethyl)-1-(6-{[4-ethyl-5-(4-fluorophenyl)-1-methyl-1H-pyrazol-3-yl]amino}pyrimidin-4-yl)-3-methyl-1H-pyrazole-4-carboxylate] here?
The IC50 was 9 nM.

How did the IC50 turn out when CCc1c(Nc2cc(-n3nc4ncccc4c3C)ncn2)nn(C)c1-c1ccc(F)cc1 [Example 167, N-[4-ethyl-5-(4-fluorophenyl)-1-methyl-1H-pyrazol-3-yl]-6-(3-methyl-2H-pyrazolo[3,4-b]pyridin-2-yl)pyrimidin-4-amine] was run?
The IC50 was 550 nM.

CCc1c(Nc2cc(-n3nc(C)c4ccncc43)ncn2)nn(C)c1-c1ccc(F)cc1 [Example 168, N-[4-ethyl-5-(4-fluorophenyl)-1-methyl-1H-pyrazol-3-yl]-6-(3-methyl-1H-pyrazolo[3,4-c]pyridin-1-yl)pyrimidin-4-amine] was tested. Which IC50 did it give?
The IC50 was 15 nM.

Cc1cc(C)n(-c2cc(Nc3nn(CC4CC4)c(-c4ccc(F)cc4)c3C)ncn2)n1 [Example 169, N-[1-(cyclopropylmethyl)-5-(4-fluorophenyl)-4-methyl-1H-pyrazol-3-yl]-6-(3,5-dimethyl-1H-pyrazol-1-yl)pyrimidin-4-amine] was tested. Which IC50 did it give?
The IC50 was 690 nM.

For Cc1nn(-c2cc(Nc3nn(CC4CC4)c(-c4ccc(F)cc4)c3C)ncn2)c(C)c1Cl [Example 170, 6-(4-chloro-3,5-dimethyl-1H-pyrazol-1-yl)-N-[1-(cyclopropylmethyl)-5-(4-fluorophenyl)-4-methyl-1H-pyrazol-3-yl]pyrimidin-4-amine], which IC50 is on record?
The IC50 was 440 nM.

With Cc1cc(C)n(-c2cc(Nc3c(C)c(-c4ccc(F)cc4)nn3CC3CC3)ncn2)n1 [Example 171, N-[1-(cyclopropylmethyl)-3-(4-fluorophenyl)-4-methyl-1H-pyrazol-5-yl]-6-(3,5-dimethyl-1H-pyrazol-1-yl)pyrimidin-4-amine] as the molecule, how does the IC50 read?
The IC50 was 12 nM.

How did the IC50 turn out when CCc1c(Nc2cc(-n3nc(C)c(Cl)c3C(F)F)ncn2)nn(CC(F)F)c1-c1ccc(F)cc1 [Example 172, 6-[4-chloro-5-(difluoromethyl)-3-methyl-1H-pyrazol-1-yl]-N-[1-(2,2-difluoroethyl)-4-ethyl-5-(4-fluorophenyl)-1H-pyrazol-3-yl]pyrimidin-4-amine] was run?
Its IC50 is 57 nM.

With CCc1c(Nc2cc(-n3nc(C)cc3C)ncn2)nn(CC(F)F)c1-c1ccc(F)cc1 [Example 173, N-[1-(2,2-difluoroethyl)-4-ethyl-5-(4-fluorophenyl)-1H-pyrazol-3-yl]-6-(3,5-dimethyl-1H-pyrazol-1-yl)pyrimidin-4-amine] as the molecule, how does the IC50 read?
Its IC50 is 16 nM.

CCc1c(Nc2cc(-n3nc(C)c(Cl)c3C)ncn2)nn(CC(F)F)c1-c1ccc(F)cc1 [Example 174, 6-(4-chloro-3,5-dimethyl-1H-pyrazol-1-yl)-N-[1-(2,2-difluoroethyl)-4-ethyl-5-(4-fluorophenyl)-1H-pyrazol-3-yl]pyrimidin-4-amine] was tested. Which IC50 did it give?
The IC50 was 33 nM.

For Cc1nn(-c2cc(Nc3c(C)c(-c4ccc(F)cc4)nn3CC3CC3)ncn2)c(C)c1Cl [Example 175, 6-(4-chloro-3,5-dimethyl-1H-pyrazol-1-yl)-N-[1-(cyclopropylmethyl)-3-(4-fluorophenyl)-4-methyl-1H-pyrazol-5-yl]pyrimidin-4-amine], which IC50 is on record?
The IC50 was 14 nM.

How did the IC50 turn out when Cc1nn(-c2cc(Nc3c(C)c(-c4ccc(F)cc4)nn3CC3CC3)ncn2)c(C(F)F)c1Cl [Example 176, 6-[4-chloro-5-(difluoromethyl)-3-methyl-1H-pyrazol-1-yl]-N-[1-(cyclopropylmethyl)-3-(4-fluorophenyl)-4-methyl-1H-pyrazol-5-yl]pyrimidin-4-amine] was run?
The IC50 was 13 nM.

CCOC(=O)c1c(C)nn(-c2cc(Nc3nn(CC(F)F)c(-c4ccc(F)cc4)c3CC)ncn2)c1C [Example 177, ethyl 1-(6-{[1-(2,2-difluoroethyl)-4-ethyl-5-(4-fluorophenyl)-1H-pyrazol-3-yl]amino}pyrimidin-4-yl)-3,5-dimethyl-1H-pyrazole-4-carboxylate] was tested. Which IC50 did it give?
The IC50 was 41 nM.

With CCOC(=O)c1c(Cl)c(C)nn1-c1cc(Nc2nn(C)c(-c3ccc(F)cc3)c2CC)ncn1 [Example 178, ethyl 4-chloro-1-(6-{[4-ethyl-5-(4-fluorophenyl)-1-methyl-1H-pyrazol-3-yl]amino}pyrimidin-4-yl)-3-methyl-1H-pyrazole-5-carboxylate] as the molecule, how does the IC50 read?
Its IC50 is 26 nM.

How did the IC50 turn out when CCc1c(-c2ccc(F)cc2)nn(CC(F)F)c1Nc1cc(-n2nc(C)c(Cl)c2C(F)F)ncn1 [Example 179, 6-[4-chloro-5-(difluoromethyl)-3-methyl-1H-pyrazol-1-yl]-N-[1-(2,2-difluoroethyl)-4-ethyl-3-(4-fluorophenyl)-1H-pyrazol-5-yl]pyrimidin-4-amine] was run?
The IC50 was 170 nM.

How did the IC50 turn out when CCOC(=O)c1c(C)nn(-c2cc(Nc3c(CC)c(-c4ccc(F)cc4)nn3CC(F)F)ncn2)c1C [Example 180, ethyl 1-(6-{[1-(2,2-difluoroethyl)-4-ethyl-3-(4-fluorophenyl)-1H-pyrazol-5-yl]amino}pyrimidin-4-yl)-3,5-dimethyl-1H-pyrazole-4-carboxylate] was run?
The IC50 was 47 nM.

CCc1c(Nc2cc(-n3nc(C)c(C(C)(C)O)c3C)ncn2)n[nH]c1-c1ccc(F)cc1 [Example 181, 2-[1-(6-{[4-ethyl-5-(4-fluorophenyl)-1H-pyrazol-3-yl]amino}pyrimidin-4-yl)-3,5-dimethyl-1H-pyrazol-4-yl]propan-2-ol] was tested. Which IC50 did it give?
The IC50 was 1500 nM.

For CCc1c(-c2ccc(F)cc2)nn(CC2CCC2)c1Nc1cc(-n2nc(C)cc2C)ncn1 [Example 182, N-[1-(cyclobutylmethyl)-4-ethyl-3-(4-fluorophenyl)-1H-pyrazol-5-yl]-6-(3,5-dimethyl-1H-pyrazol-1-yl)pyrimidin-4-amine], which IC50 is on record?
Its IC50 is 106 nM.

How did the IC50 turn out when Cc1nn(-c2cc(Nc3nn(CC4CC4)c(-c4ccc(F)cc4)c3Cl)ncn2)c(C)c1Cl [Example 183, N-[4-chloro-1-(cyclopropylmethyl)-5-(4-fluorophenyl)-1H-pyrazol-3-yl]-6-(4-chloro-3,5-dimethyl-1H-pyrazol-1-yl)pyrimidin-4-amine] was run?
Its IC50 is 930 nM.

For Cc1nn(-c2cc(Nc3nn(CC4CC4)c(-c4ccc(F)cc4)c3Cl)ncn2)c(C(F)F)c1Cl [Example 184, N-[4-chloro-1-(cyclopropylmethyl)-5-(4-fluorophenyl)-1H-pyrazol-3-yl]-6-[4-chloro-5-(difluoromethyl)-3-methyl-1H-pyrazol-1-yl]pyrimidin-4-amine], which IC50 is on record?
The IC50 was 1200 nM.

How did the IC50 turn out when Cc1nn(-c2cc(Nc3c(Cl)c(-c4ccc(F)cc4)nn3CC3CC3)ncn2)c(C)c1Cl [Example 185, N-[4-chloro-1-(cyclopropylmethyl)-3-(4-fluorophenyl)-1H-pyrazol-5-yl]-6-(4-chloro-3,5-dimethyl-1H-pyrazol-1-yl)pyrimidin-4-amine] was run?
The IC50 was 27 nM.

With Cc1nn(-c2cc(Nc3c(Cl)c(-c4ccc(F)cc4)nn3CC3CC3)ncn2)c(C(F)F)c1Cl [Example 186, N-[4-chloro-1-(cyclopropylmethyl)-3-(4-fluorophenyl)-1H-pyrazol-5-yl]-6-[4-chloro-5-(difluoromethyl)-3-methyl-1H-pyrazol-1-yl]pyrimidin-4-amine] as the molecule, how does the IC50 read?
The IC50 was 60 nM.

Which IC50 does the source give for Cc1cc(C)n(-c2cc(Nc3c(Cl)c(-c4ccc(F)cc4)nn3CC3CC3)ncn2)n1 [Example 187, N-[4-chloro-1-(cyclopropylmethyl)-3-(4-fluorophenyl)-1H-pyrazol-5-yl]-6-(3,5-dimethyl-1H-pyrazol-1-yl)pyrimidin-4-amine] here?
Its IC50 is 10 nM.

From patent US11208400B2, “Substituted 6-(1H-pyrazol-1-yl)pyrimidin-4-amine derivatives and uses thereof” (Bayer Aktiengesellschaft, priority 2016, dated 2021)
